Consider two molecules from US20230202973A1, “BARNESIN A, DERIVATIVES AND USES THEREOF” (Leibniz-Institut Für Naturstoff-Forschung Und …, priority 2018, published 2023).

The IC50 is the concentration that inhibits the measured activity by half.

Data set [1] is classed as in vitro ADME. The note with it: 0 min, pH 7.4. The method, then:
The liver is the main organ of drug metabolism in the body. Subcellular fractions such as liver microsomes are useful in vitro models of hepatic clearance as they contain many of the drug metabolising enzymes found in the liver. Liver microsomes are subcellular fractions which contain membrane bound drug metabolising enzymes. The microsomes are incubated with the test compound at 37° C. in the presence of the co-factors, which initiates the reaction. The reaction is terminated by the addition of organic solvents containing internal standard. Following centrifugation, the supernatant is analysed on the LC-MS/MS. The disappearance of test compound is monitored over certain time period. Here, a microsome stability assay was used to investigate the metabolism of the compounds; using this assay it is possible to measure in vitro the intrinsic clearance or to identify metabolites formed. For a standard assay the following solutions were used: 360 μL Microsomal solution (1.1 mg/mL in phosphate buffer), 360 μL NADP-regeneration mix (containing NADP (10 mM), MgCl2 (50 mM), glucose-6-phosphate (50 mM), glucose-6-phosphate dehydrogenase (50 U/ml)) and 40 μL phosphate buffer (100 mM, pH 7.4). […] 5 uL of each sample was injected to a UPLC/HRMS system and the peak areas of the extracted ion chromatograms were determined

Data set [2] has as its target Cathepsin B (Homo sapiens, UniProt P07858). The following applies: reported in literature; cells printed in μM; read-out: Cathepsin B, reported inhibitory activity as IC50 value; cited from earlier work.
Data set [3] concerns Trypsin. The note with it: reported in literature; cited from earlier work.

For the molecule `O=C(O)Cc1ccccc1Nc1c(Cl)cccc1Cl` [Diclo, Diclofenac], the “Area rel. [%], PC” value in data set [1] came to 100.0%.
On to `CC[C@H](NC(=O)C[C@H](O)[C@H](CC(C)C)NC(=O)[C@H](CC(C)C)NC(=O)[C@@H]1N[C@H]1C(=O)O)C(=O)N[C@H](/C=C/C(=O)O)CCCNC(=N)N` [Miraziridine A], for which the IC50 in data set [2] was 2.05 µM; in data set [3], 60 µM.
